From publication PMC3731216, “Origin and Functional Diversification of an Amphibian Defense Peptide Arsenal” (PLoS Genetics, 2013)
≈ marks a conversion by molar mass, not a printed value. Where a SMILES comes first, the peptide text is derived from it.

Legend:
[1] = Hydrophobicity as % TFA/AcN solvent at HPLC elution time; type: physicochemical; settings: chromatographic; expressed as % TFA/AcN solvent at HPLC elution time
[2] = test system: Pseudomonas aeruginosa (ATCC 15692); assay: MIC assay in liquid medium (twofold dilutions) against P. aeruginosa; type: cell-based; settings: lowest concentration in twofold dilutions with no growth; 5×10^5 CFU/ml, Müller-Hinton broth, 37°C, 18 hours, read by eye; duplicate or triplicate, min–max if variable
Protocol: (§1) Seventeen predicted and recovered peptides were de novo synthesized using solid-phase technology by CASLO Laboratory ApS (Lyngby, Denmark) and delivered as HPLC-purified (>95%) trifluoracetate (TFA) salts. The peptide salts were stored as 5.12 mM stock solutions in 0.01% (V/V) acetic acid/0.2% (m/V) BSA. Peptides were tested against Escherichia coli (ATCC 25922) and Pseudomonas aeruginosa (ATCC 15692), Staphylococcus aureus (ATCC 25923), Micrococcus luteus, Saccharomyces cerevisiae, a protozoan parasite (Trypanosoma brucei brucei), mouse (Mus musculus) red blood cells and mouse spleen tissue cultures (containing 50–60% B-cells, ∼25–30% T-cells, and 5% myeloid cells). All assays were performed in duplicate or triplicate.
(§2) Activity against the bacteria and fungus was measured by assessing the lowest peptide concentration in a series of twofold dilutions at which no growth was detected (known as the minimum inhibitory concentration, MIC). Bacterial and yeast cultures (5×10^5 colony forming units/ml) were prepared in Müller-Hinton (MH) broth and Luria-Bertani (LB) broth respectively and transferred to serial dilutions of peptides ranging from 512 or 256 µM down to 1 or 0.5 µM in 96-well polypropylene plates. After incubation at 37°C (bacteria) or 30°C (S. cerevisiae) for 18 hours, growth of the cultures was checked by eye. In addition to MIC, we determined minimum microbicidal concentrations (MMC) by inoculating samples of the MIC assays on agar plates lacking peptides and checking for overnight growth. In all cases, MIC and MMC were identical.

Saccharomyces cerevisiae = assay: MIC assay in liquid medium (twofold dilutions) against S. cerevisiae; type: cell-based; settings: lowest concentration in twofold dilutions with no growth; 5×10^5 CFU/ml, Luria-Bertani broth, 30°C, 18 hours, read by eye; duplicate or triplicate, min–max if variable
Protocol: as §1, §2

[3] = test system: Escherichia coli (ATCC 25922); assay: MIC assay in liquid medium (twofold dilutions) against E. coli; type: cell-based; settings: lowest concentration in twofold dilutions with no growth; 5×10^5 CFU/ml, Müller-Hinton broth, 37°C, 18 hours, read by eye; duplicate or triplicate, min–max if variable
Protocol: as §1, §2

[4] = test system: T-lymphocytes (naive C57Black/6 splenocytes); assay: Inhibition of Concanavalin A-induced T-cell proliferation in spleen cell cultures; type: cell-based, Mus musculus; settings: lowest concentration causing at least 50% inhibition of Concanavalin A-induced T-cell proliferation; 2×10^5 splenocytes, 24 h + 18 h [3H]thymidine, 37°C; min–max if variable
Protocol: as §1
Activity against T-lymphocytes was assessed as the lowest peptide concentration in a series of twofold dilutions causing at least 50% inhibition of Concanavalin A-induced T-cell proliferation (IC50). Solutions containin 2×10^5 naive C57Black/6 splenocytes in the presence of 2.5 µg Concanavalin A were added to polypropylene 96-well plates containing the serial peptide dilutions to obtain total volumes of 100 µl. After incubation for 24 hours at 37°C in a humidified atmosphere, the cells were pulsed with [^3H]thymidine and incubated for an additional 18 hours. The amount of [^3H]thymidine incorporation was assessed by a β-counter as a measure of cell proliferation and the percentage of proliferation inhibition for each peptide concentration was calculated as 100×(1−(Tobs/T100%)), where Tobs is the [^3H]thymidine level measured for the peptide concentration, and T100% is the [^3H]thymidine level measured for Concanavalin-A-induced cell proliferation in the absence of peptide (representing 100% proliferation).

Micrococcus luteus = assay: MIC assay in liquid medium (twofold dilutions) against M. luteus; type: cell-based; settings: lowest concentration in twofold dilutions with no growth; 5×10^5 CFU/ml, Müller-Hinton broth, 37°C, 18 hours, read by eye; duplicate or triplicate, min–max if variable
Protocol: as §1, §2

[5] = test system: Staphylococcus aureus (ATCC 25923); assay: MIC assay in liquid medium (twofold dilutions) against S. aureus; type: cell-based; settings: lowest concentration in twofold dilutions with no growth; 5×10^5 CFU/ml, Müller-Hinton broth, 37°C, 18 hours, read by eye; duplicate or triplicate, min–max if variable
Protocol: as §1, §2

mouse red blood cells = assay: Hemolysis of mouse red blood cells (HC50); type: cell-based; settings: lowest concentration causing at least 50% hemolysis; mouse blood diluted 1/100 in RPMI, 37°C, 30 minutes, OD 550 nm; 100% = 1% Tween-20
Protocol: as §1
Activity against mouse red blood cells was examined by assessing the lowest peptide concentration in a series of twofold dilutions causing at least 50% hemolysis (HC50). Briefly, heparinized blood was obtained by cardiac puncture of mice euthanized via CO2. The blood was diluted 1/100 in RPMI and added to polypropylene 96-well plates containing the serial peptide dilutions to obtain total volumes of 100 µl. The plates were incubated at 37°C in a humidified atmosphere for 30 minutes and centrifuged at 1400 rpm for 2 minutes to pellet intact red blood cells allowing visual observation of hemolysis. Supernatants were subsequently transferred to 96-well flat-bottom plates to allow spectrophotometry using an ELISA reader (OD measured at 550 nm). The percentage of hemolyis for each peptide concentration was calculated as 100×(ODobs−OD0%)/(OD100%−OD0%), where ODobs is the OD measured for the peptide concentration, OD0% is the average OD in the absence of peptides (0% hemolysis), and OD100% is the average OD in the presence of 1% Tween-20 (100% hemolysis).

[6] = test system: Trypanosoma brucei brucei AnTat1.1 bloodstream parasites; assay: Trypanolytic activity (LC95, 30 minutes); type: cell-based; settings: lowest concentration killing at least 95% of parasites after 30 minutes; PSG buffer with 5% FCS, light microscope count; min–max of repeated tests
Protocol: as §1
Activity against T. brucei parasites was assessed as the minimum concentration in a series of twofold dilutions required to kill 95% of parasites in 30 minutes (LC95). Frozen stabilates of Trypanosoma brucei brucei AnTat1.1 bloodstream parasites were expanded by infection of C57Black/6 mice (Janvier). Mice with systemic parasitaemia (typically 4–5 days post infection) were exsanguinated and parasites were purified from heparinized blood by DEAE-cellulose (DE52, Whatman) chromatography. Collected parasites were washed twice with Phosphate-Saline-Glucose buffer (PSG-buffer) and enumerated microscopically using a Bürker hematocytometer. The DEAE52-purified parasites (stock: 10^6 parasites/ml PSG buffer containing 5% FCS) were added to polypropylene 96-well plates containing the serial peptide dilutions to obtain total volumes of 200 µl. After incubation for 30 minutes, trypanolytic activity was assessed using a light microscope by calculating the percentage of dead parasites in a minimum of 200 counted cells.

Molecule	Hydrophobicity [1]	MIC P. aeruginosa [2] [µM]	MIC S. cerevisiae (Saccharomyces cerevisiae) [µM]	MIC E. coli [3] [µM]	IC50 [4] [µM]	MIC M. luteus (Micrococcus luteus)	MIC S. aureus [5] [µM]	HC50 Erythrocytes (mouse red blood cells) [µM]	LC95 T. brucei [6] [µM]
pQGLMGTLISKQMKKa [levitide-St1, levitide-related peptide encoded by xpf-St4]	31,6 % TFA/AcN solvent	–	–	–	–	–	–	–	–
GMATKAGTVLGKVTKAIIGAALa [PGLa-St3, predicted S. tropicalis skin peptide encoded by pgla-St3]	39,2 % TFA/AcN solvent	–	–	–	–	–	–	–	–
FIGALLGPLLNLLKa [PFQa-St1, homologue of pFQa encoded by xpf-St7]	55,4 % TFA/AcN solvent	–	–	–	–	–	–	–	–
pQGLIGTLTAKQIKKa [levitide-St2, levitide-related peptide encoded by xpf-St5]	35,0 % TFA/AcN solvent	–	–	–	–	–	–	–	–
CC(C)C[C@H](NC(=O)[C@H](CC(C)C)NC(=O)[C@H](CC(N)=O)NC(=O)[C@H](CO)NC(=O)CNC(=O)[C@@H](NC(=O)[C@H](CCCCN)NC(=O)[C@H](CC(C)C)NC(=O)CNC(=O)[C@@H](NC(=O)[C@H](CCCCN)NC(=O)[C@H](CC(C)C)NC(=O)[C@H](CC(C)C)NC(=O)[C@H](CO)NC(=O)CNC(=O)[C@H](CC(C)C)NC(=O)[C@H](CC(C)C)NC(=O)[C@@H](N)CC(N)=O)[C@@H](C)O)C(C)C)C(N)=O [CPF-St7] (H-NLLGSLLKTGLKVGSNLL-NH2; N-terminus assumed)	45,2 % TFA/AcN solvent	>256	64 (≈ 118 µg/mL)	128 (≈ 235 µg/mL)	128	2 µM (≈ 3.68 µg/mL)	32 (≈ 58.9 µg/mL)	256	2 to 64
KLGFENFLVKALKTVMHVPTSPLLa [CPF-St6, predicted S. tropicalis skin peptide encoded by cpf-St6]	35,5 % TFA/AcN solvent	>256	64	16	32 to 64	4 µM	>256	256	16 to 256
CC[C@H](C)[C@H](NC(=O)[C@H](CC(C)C)NC(=O)[C@H](CCCCN)NC(=O)[C@H](CO)NC(=O)[C@H](C)NC(=O)CNC(=O)[C@H](CCCCN)NC(=O)[C@H](CC(C)C)NC(=O)[C@H](C)NC(=O)[C@H](C)NC(=O)[C@H](CCCCN)NC(=O)[C@H](C)NC(=O)[C@H](CC(C)C)NC(=O)[C@H](CC(C)C)NC(=O)CNC(=O)[C@H](Cc1ccccc1)NC(=O)[C@@H](NC(=O)CN)C(C)C)C(=O)N1CCC[C@H]1C(=O)N[C@@H](Cc1c[nH]cn1)C(=O)N[C@@H](CC(C)C)C(=O)N[C@@H](CC(C)C)C(=O)N1CCC[C@H]1C(=O)N[C@@H](CO)C(=O)N[C@@H](CCCNC(=N)N)C(=O)N[C@@H](CCC(N)=O)C(=O)N[C@@H](CCC(N)=O)C(=O)O [CPF-St5] (H-GVFGLLAKAALKGASKLIPHLLPSRQQ-OH)	–	4 to 8	16 (≈ 45 µg/mL)	1 (≈ 2.81 µg/mL)	8	0,5 µM	1 (≈ 2.81 µg/mL)	64	–
CC[C@H](C)[C@H](NC(=O)[C@@H](N)Cc1ccccc1)C(=O)NCC(=O)N[C@@H](C)C(=O)N[C@@H](CC(C)C)C(=O)N[C@@H](CC(C)C)C(=O)N[C@@H](CCCNC(=N)N)C(=O)N1CCC[C@H]1C(=O)N[C@@H](C)C(=O)N[C@@H](CC(C)C)C(=O)N[C@@H](CCCCN)C(=O)N[C@@H](CC(C)C)C(=O)N[C@@H](CC(C)C)C(=O)N[C@@H](C)C(=O)NCC(=O)N[C@@H](CCCCN)C(=O)O [PFQa-St2] (H-FIGALLRPALKLLAGK-OH)	–	256 (≈ 430 µg/mL)	128 (≈ 215 µg/mL)	32 (≈ 53.8 µg/mL)	128	4 µM (≈ 6.72 µg/mL)	16 (≈ 26.9 µg/mL)	256	–
CC[C@H](C)[C@H](NC(=O)[C@H](C)NC(=O)[C@H](CC(N)=O)NC(=O)[C@@H](NC(=O)CNC(=O)CNC(=O)[C@H](CCCCN)NC(=O)[C@H](C)NC(=O)[C@H](Cc1ccccc1)NC(=O)[C@H](CCCCN)NC(=O)[C@H](CCCCN)NC(=O)[C@H](C)NC(=O)[C@H](Cc1ccccc1)NC(=O)[C@H](CC(N)=O)NC(=O)[C@H](C)NC(=O)[C@@H](NC(=O)[C@H](CCCCN)NC(=O)[C@H](CO)NC(=O)[C@H](CCSC)NC(=O)[C@H](Cc1ccccc1)NC(=O)CN)C(C)C)C(C)C)C(=O)N[C@@H](CCSC)C(=O)N[C@@H](CC(N)=O)C(=O)N[C@@H](CCC(N)=O)C(=O)N[C@@H](CCCCN)C(=O)O [XPF-St8] (H-GFMSKVANFAKKFAKGGVNAIMNQK-OH)	–	4 (≈ 10.7 µg/mL)	8 (≈ 21.5 µg/mL)	1 (≈ 2.69 µg/mL)	16	0,5 µM	128 (≈ 344 µg/mL)	64	–
CC[C@H](C)[C@H](NC(=O)[C@H](C)NC(=O)[C@H](CCCCN)NC(=O)[C@H](C)NC(=O)[C@H](C)NC(=O)[C@H](CCCCN)NC(=O)CNC(=O)[C@H](Cc1ccccc1)NC(=O)[C@H](C)NC(=O)[C@@H](NC(=O)CNC(=O)[C@H](C)NC(=O)[C@H](CCCCN)NC(=O)[C@@H](NC(=O)[C@H](C)NC(=O)[C@H](CCSC)NC(=O)CN)[C@@H](C)O)[C@@H](C)O)C(=O)N[C@H](C(=O)NCC(=O)N[C@@H](C)C(=O)N[C@@H](C)C(=O)N[C@@H](CC(C)C)C(N)=O)[C@@H](C)CC [PGLa-St2] (H-GMATKAGTAFGKAAKAIIGAAL-NH2; N-terminus assumed)	42,6 % TFA/AcN solvent	128 (≈ 258 µg/mL)	64 (≈ 129 µg/mL)	16 (≈ 32.3 µg/mL)	64	2 µM (≈ 4.04 µg/mL)	>256	>256	16 to 32
